Results as given in patent publication US4948782A, “A method of promoting the growth of domestic animals with erythromycin derivative containing composition” (Kitasato Kenkyusho, priority 1987, dated 1990).

Key:
Type in all cases: cell-based
[1] = test system: Klebsiella pneumoniae ATCC 10031; test: MIC, Klebsiella pneumoniae ATCC 10031 (KP); details: ATCC10031; Klebsiella pneumoniae ATCC 10031; read-out: MIC KP
[2] = test system: Staphylococcus aureus FDA 209P; test: MIC, Staphylococcus aureus FDA 209P (SA(2)); details: Staphylococcus aureus, FDA209P, Staphylococcus aureus FDA 209P; read-out: MIC SA (2)
Text: (§1) The minimum inhibitory concentrations (MIC: mcg/ml) of the erythromycin derivatives of the present invention and the control erythromycin derivative (*) as the known growth promoting agent on typical test bacteria are shown in the following Tables 1 to 5.
SA(2): Staphylococcus aureus FDA 209P

Escherichia coli NIHJ = test: MIC, Escherichia coli NIHJ (EC)
Bacillus cereus IFO 3001 = test: MIC, Bacillus cereus IFO 3001 (BC); details: Bacillus cereus, IFO3001, Bacillus cereus IFO 3001; read-out: MIC BC
Bacillus subtilis = test: MIC, Bacillus subtilis (BS); details: read-out: MIC BS
[3] = test system: Staphylococcus aureus ATCC 6538P; test: MIC, Staphylococcus aureus ATCC 6538P (SA(1)); details: Staphylococcus aureus, ATCC6538P, Staphylococcus aureus ATCC 6538P; read-out: MIC SA (1)
Text: as §1
SA(1): Staphylococcus aureus ATCC 6538P

Structure (SMILES)	MIC [1]	MIC [2]	MIC (Escherichia coli NIHJ)	MIC (Bacillus cereus IFO 3001)	MIC (Bacillus subtilis)	MIC [3]
C=CCN(C)C1CC(C)OC(OC2C(C)C(OC3CC(C)(OC)C(O)C(C)O3)C(C)C(=O)OC(CC)C(C)(O)C(O)C(C)C3=C(C)CC2(C)O3)C1O (stereo not drawn) [Compound 34]	> 100 µg/mL	> 100 µg/mL	> 100 µg/mL	> 100 µg/mL	> 100 µg/mL	> 100 µg/mL
CC[C@H]1OC(=O)[C@H](C)[C@@H](O[C@H]2C[C@@](C)(OC)[C@@H](O)[C@H](C)O2)[C@H](C)[C@@H](O[C@@H]2O[C@H](C)C[C@H](N(C)CC)[C@H]2O)[C@@]2(C)CC(C)C(O2)[C@H](C)[C@@H](O)[C@]1(C)O (stereo partly drawn) [Compound 69]	> 100 µg/mL	> 100 µg/mL	> 100 µg/mL	> 100 µg/mL	> 100 µg/mL	> 100 µg/mL
CCCC[N+](C)(C)[C@H]1C[C@@H](C)O[C@@H](O[C@@H]2[C@@H](C)[C@H](O[C@H]3C[C@@](C)(OC)[C@@H](O)[C@H](C)O3)[C@@H](C)C(=O)O[C@H](CC)[C@@](C)(O)[C@H](O)[C@@H](C)C3O[C@]2(C)CC3C)[C@@H]1O (stereo partly drawn) [Compound 65]	> 100 µg/mL	100 µg/mL	> 100 µg/mL	100 µg/mL	50 µg/mL	100 µg/mL
CCC1OC(=O)C(C)C(OC2CC(C)(OC)C(O)C(C)O2)C(C)C(OC2OC(C)CC([N+](C)(CC)CC)C2O)C2(C)CC(C)=C(O2)C(C)C(O)C1(C)O (stereo not drawn) [Compound 12]	> 100 µg/mL	> 100 µg/mL	> 100 µg/mL	> 100 µg/mL	> 100 µg/mL	> 100 µg/mL
C=CCN(CC=C)C1CC(C)OC(OC2C(C)C(OC3CC(C)(OC)C(O)C(C)O3)C(C)C(=O)OC(CC)C(C)(O)C(O)C(C)C3=C(C)CC2(C)O3)C1O (stereo not drawn) [Compound 38]	> 100 µg/mL	> 100 µg/mL	> 100 µg/mL	> 100 µg/mL	> 100 µg/mL	> 100 µg/mL
CCC1OC(=O)C(C)C(OC2CC(C)(OC)C(O)C(C)O2)C(C)C(OC2OC(C)CC(N3CCCC3)C2O)C2(C)CC(C)=C(O2)C(C)C(O)C1(C)O (stereo not drawn) [Compound 13]	> 100 µg/mL	> 100 µg/mL	> 100 µg/mL	> 100 µg/mL	> 100 µg/mL	> 100 µg/mL
C#CC[N+](C)(C)C1CC(C)OC(OC2C(C)C(OC3CC(C)(OC)C(O)C(C)O3)C(C)C(=O)OC(CC)C3(C)OC(C)(C)OC3C(C)C3=C(C)CC2(C)O3)C1O (stereo not drawn) [Compound 55]	> 100 µg/mL	12.5 µg/mL	> 100 µg/mL	12.5 µg/mL	12.5 µg/mL	12.5 µg/mL
C#CC[N+](C)(C)[C@H]1C[C@@H](C)O[C@@H](O[C@@H]2[C@@H](C)[C@H](O[C@H]3C[C@@](C)(OC)[C@@H](O)[C@H](C)O3)[C@@H](C)C(=O)O[C@H](CC)C(C)[C@H](O)[C@@H](C)C3=C(C)C[C@@]2(C)O3)[C@@H]1O (stereo partly drawn) [Compound 75]	> 100 µg/mL	100 µg/mL	> 100 µg/mL	100 µg/mL	100 µg/mL	100 µg/mL

Further lines, results first:

MIC [1]	MIC [2]	MIC (Escherichia coli NIHJ)	MIC (Bacillus cereus IFO 3001)	MIC (Bacillus subtilis)	MIC [3]	Structure (SMILES)
> 100 µg/mL	> 100 µg/mL	> 100 µg/mL	> 100 µg/mL	> 100 µg/mL	> 100 µg/mL	CCC1OC(=O)C(C)C(OC2CC(C)(OC)C(O)C(C)O2)C(C)C(OC2OC(C)CC([N+]3(C)CCCC3)C2O)C2(C)CC(C)=C(O2)C(C)C(O)C1(C)O (stereo not drawn) [Compound 14]
> 100 µg/mL	> 100 µg/mL	> 100 µg/mL	> 100 µg/mL	> 100 µg/mL	100 µg/mL	C=CC[N+](C)(C)C1CC(C)OC(OC2C(C)C(OC3CC(C)(OC)C(O)C(C)O3)C(C)C(=O)OC(CC)C(C)(O)C(O)C(C)C3=C(C)CC2(C)O3)C1O (stereo not drawn) [Compound 16]
> 100 µg/mL	100 µg/mL	> 100 µg/mL	> 100 µg/mL	> 100 µg/mL	100 µg/mL	C#CC[N+](C)(CC#C)C1CC(C)OC(OC2C(C)C(OC3CC(C)(OC)C(O)C(C)O3)C(C)C(=O)OC(CC)C(C)(O)C(O)C(C)C3=C(C)CC2(C)O3)C1O (stereo not drawn) [Compound 45]
